For assay [1], the system named is Ba/F3-NRAS-G12D cells. Nature of the assay: Anti-proliferation assay (CellTiter Glo) on Ba/F3-NRAS-G12D. The assay is classed as cell-based. Conditions: 72 h treatment, average with SD (n = 3, duplicate). Here is the method: (§1) Ba/F3-parental, OCI-AML3, U397 cells were purchased from DSMZ. MDA-MB-231, HCT-116, AsPC-1, H358, HT-29, SW480, and DU-145 cells were obtained from KCLB. MDA-MB-468 cells were obtained from ATCC. All cells were maintained in RPMI with 10% FBS and antibiotics. Cells were grown in a humidified 5% CO2 incubator at 37°C. Ba/F3-parental cells were grown in the presence of 10 ng/ml IL-3. NRAS-G12D or NRAS-G12V transformed Ba/F3 cell lines (Ba/F3-NRAS-G12D, and Ba/F3-NRAS-G12V, respectively) were cultured without IL-3, which were established by the procedure described as previously ([30]).
(§2) Approximately 3.0 × 10^3 cells/well were seeded in a 96-well cell culture plate. After stabilization, 1/3 serially diluted compound in DMSO was treated to the cell. […] All GI50 values were obtained in duplicate with three independent assays and averages with standard deviation are presented.
For orientation: Cellular ATP, detected with luciferase, serves as a proxy for viable cell number.

Assay [2] deals with Ba/F3-NRAS-G12V cells. The experiment in a line: Anti-proliferation assay (CellTiter Glo) on Ba/F3-NRAS-G12V. The assay is classed as cell-based. The following applies: 72 h treatment, average with SD (n = 3, duplicate). The procedure:
as §1, §2

Assay [3] has as its system Ba/F3-parental cells. Nature of the assay: Anti-proliferation assay (CellTiter Glo) on Ba/F3-parental. Format: cell-based. Conditions: 72 h treatment, with 10 ng/ml IL-3, average with SD (n = 3, duplicate). Here is the method: as §1, §2
The test system of assay [4] is H358 (KRAS-G12C). The experiment in a line: Anti-proliferation assay on H358. The assay is classed as cell-based. The following applies: 72 h treatment, average with SD (n = 3, duplicate). Here is the method:
as §1, §2

Assay [5] deals with AsPC-1 (KRAS-G12D). The experiment in a line: Anti-proliferation assay on AsPC-1. The assay is classed as cell-based. Conditions: 72 h treatment, average with SD (n = 3, duplicate). The procedure:
as §1, §2

The subject of assay [6] is DU-145 (KRAS-G12V). The experiment in a line: Anti-proliferation assay on DU-145. The assay is classed as cell-based. Conditions: 72 h treatment, average with SD (n = 3, duplicate). Here is the method:
as §1, §2

Assay [7] concerns SW480 (KRAS-G12V). The experiment in a line: Anti-proliferation assay on SW480. Format: cell-based. Conditions: 72 h treatment, average with SD (n = 3, duplicate). Here is the method:
as §1, §2

The test system of assay [8] is HCT-116 (KRAS-G13D). Nature of the assay: Anti-proliferation assay on HCT-116. Conditions: 72 h treatment, average with SD (n = 3, duplicate). Format: cell-based. The procedure: as §1, §2
For assay [9], the system named is MDA-MB-231 (KRAS-G13D). Nature of the assay: Anti-proliferation assay on MDA-MB-231. The assay is classed as cell-based. Conditions: 72 h treatment, average with SD (n = 3, duplicate). Here is the method:
as §1, §2

The subject of assay [10] is HT-29 (KRAS-Q61L). Nature of the assay: Anti-proliferation assay on HT-29. Format: cell-based. The following applies: 72 h treatment, average with SD (n = 3, duplicate). The procedure: as §1, §2
The subject of assay [11] is OCI-AML3 (NRAS-Q61L). Nature of the assay: Anti-proliferation assay on OCI-AML3. Conditions: 72 h treatment, average with SD (n = 3, duplicate). The assay is classed as cell-based, human. Here is the method:
as §1, §2

The test system of assay [12] is MDA-MB-468 (KRAS, NRAS-wt). Nature of the assay: Anti-proliferation assay on MDA-MB-468. Format: cell-based. Conditions: 72 h treatment, average with SD (n = 3, duplicate). The procedure:
as §1, §2

The subject of assay [13] is U937 (KRAS, NRAS-wt). The experiment in a line: Anti-proliferation assay on U937. Conditions: 72 h treatment, average with SD (n = 3, duplicate). The assay is classed as cell-based. Here is the method:
as §1, §2

For assay [14], the system named is mtKRAS NSCLC cell. Details: method as in earlier work. Conditions: ACK1 inhibitor; ref 37 (Tan et al.); cited from earlier work.

Where only a bound is given, the exact number is not on record here.

For orientation: GI50 means the concentration giving 50% growth inhibition. Take `COc1cc(N2CCOCC2)ccc1Nc1ncc2c(n1)N(C)C(=O)N(c1cc(NC(=O)c3cccc(C(F)(F)F)c3)ccc1C)C2` [Compound 7, N-(3-(7-((2-Methoxy-4-morpholinophenyl)amino)-1-methyl-2-oxo-1,4-dihydropyrimido[4,5-d]pyrimidin-3(2H)-yl)-4-methylphenyl)-3-(trifluoromethyl)benzamide]: the GI50 in assay [1] (Mus musculus, BaF3) turned out to be 588 ± 72 nM; in assay [2] (Mus musculus, BaF3), 429 ± 80 nM; in assay [3] (Mus musculus, BaF3), 3780 ± 1890 nM; in [4] (Homo sapiens, NCI-H358), 871 ± 141 nM; in [5] (Homo sapiens, ASPC1), 1680 ± 589 nM; in [6] (Homo sapiens, DU-145) it was 388 ± 45 nM. Moreover, the concentration for 50% growth inhibition (GI50) in assay [7] (Homo sapiens, SW480) was 1329 ± 5 nM; in assay [8] (Homo sapiens, HCT-116) it was 480 ± 275 nM; in assay [9] (Homo sapiens, MDA-MB-231), 620 ± 153 nM; in assay [10] (Homo sapiens, HT-29) it was 733 ± 1 nM; in [11] (Homo sapiens, OCI-AML-3), 606 ± 68 nM; in [12] (Homo sapiens, MDA-MB-468), more than 50000 nM. Moreover, the GI50 in assay [13] (Homo sapiens, U-937) came to 17400 ± 4220 nM.

For `Cc1ccc(NC(=O)c2cccc(C(F)(F)F)c2)cc1N1Cc2cnc(Nc3cnn(C)c3)nc2N(C)C1=O` [Compound 10, N-(4-Methyl-3-(1-methyl-7-((1-methyl-1H-pyrazol-4-yl)amino)-2-oxo-1,4-dihydropyrimido[4,5-d]pyrimidin-3(2H)-yl)phenyl)-3-(trifluoromethyl)benzamide], the concentration for 50% growth inhibition (GI50) in assay [1] (Mus musculus, BaF3) is 193 ± 7 nM; in assay [2] (Mus musculus, BaF3), 280 ± 79 nM; in assay [3] (Mus musculus, BaF3) it was 630 ± 104 nM; in assay [4] (Homo sapiens, NCI-H358), 130 ± 9 nM; in assay [5] (Homo sapiens, ASPC1), 105 ± 34 nM; in [6] (Homo sapiens, DU-145), 51 ± 46 nM. The GI50 in assay [7] (Homo sapiens, SW480) is 275 ± 29 nM; in [8] (Homo sapiens, HCT-116), 68 ± 28 nM; in assay [9] (Homo sapiens, MDA-MB-231) it was 50 ± 12 nM; in [10] (Homo sapiens, HT-29) it was 366 ± 152 nM; in [11] (Homo sapiens, OCI-AML-3), 59 ± 7 nM; in assay [12] (Homo sapiens, MDA-MB-468) it was more than 50000 nM. This molecule returned a GI50 in assay [13] (Homo sapiens, U-937) of 2700 ± 668 nM.

In the case of `COc1cc(Nc2c(C#N)cnc3cc(OCCCN4CCN(C)CC4)c(OC)cc23)c(Cl)cc1Cl` [bosutinib], the “mtKRAS NSCLC cell migration and invasion” value in [14] is “suppressed”.

As for `COCCn1cc(Nc2ncc3c(n2)N(C)C(=O)N(c2cc(NC(=O)c4cccc(C(F)(F)F)c4)ccc2C)C3)cn1` [Compound 12, N-(3-(7-((1-(2-Methoxyethyl)-1H-pyrazol-4-yl)amino)-1-methyl-2-oxo-1,4-dihydropyrimido[4,5-d]pyrimidin-3(2H)-yl)-4-methylphenyl)-3-(trifluoromethyl)benzamide], the GI50 in assay [1] (Mus musculus, BaF3) was 122 ± 1 nM; in assay [2] (Mus musculus, BaF3), 216 ± 5 nM; in [3] (Mus musculus, BaF3), 1160 ± 424 nM; in assay [4] (Homo sapiens, NCI-H358) it was 106 ± 12 nM; in [5] (Homo sapiens, ASPC1), 275 ± 47 nM; in assay [6] (Homo sapiens, DU-145), 34 ± 25 nM. The GI50 in assay [7] (Homo sapiens, SW480) was 532 ± 150 nM; in assay [8] (Homo sapiens, HCT-116) it was 66 ± 55 nM; in assay [9] (Homo sapiens, MDA-MB-231) it was 71 ± 18 nM; in assay [10] (Homo sapiens, HT-29) it was 131 ± 4 nM; in [11] (Homo sapiens, OCI-AML-3), 46 ± 16 nM; in [12] (Homo sapiens, MDA-MB-468), more than 50000 nM. Further, in assay [13] (Homo sapiens, U-937), growth was halved (GI50) at 934 ± 57 nM.

Regarding `Cc1ccc(Nc2ncc3c(n2)N(C)C(=O)N(c2cc(NC(=O)c4cccc(C(F)(F)F)c4)ccc2C)C3)cn1` [GNF-7, reference compound], the GI50 in assay [1] is 250 ± 26 nM; in assay [2] it was 396 ± 36 nM; in [3], 923 ± 59 nM; in assay [4], 922 ± 93 nM; in assay [5] it was 448 ± 27 nM; in [6] it was 288 ± 57 nM. Besides, the GI50 in [7] was 760 ± 63 nM; in assay [8], 169 ± 61 nM; in [9] it was 296 ± 39 nM; in [10], 938 ± 34 nM; in assay [11], 229 ± 10 nM; in assay [12], more than 50000 nM. In [13], this molecule returned a GI50 of 4780 ± 926 nM.

The values are drawn from publication PMC8695447, “Novel Small Molecules Capable of Blocking mtRAS-Signaling Pathway” (Frontiers in Oncology, 2021).
